1 cell line from the supplement of paper PMC10307832 can be followed below.

Assay in all cases: relative viability (nuclei count vs DMSO), 5 days (fraction); higher = more cells survive
Compound in the test “GSK-J4 + Linsitinib”: CCOC(=O)CCNc1cc(N2CCc3ccccc3CC2)nc(-c2ccccn2)n1 [GSK-J4] + C[C@]1(O)C[C@@H](c2nc(-c3ccc4ccc(-c5ccccc5)nc4c3)c3c(N)nccn32)C1 [Linsitinib] (partner 1 µM)
Summed up: (§1)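 Nuclei were stained with Hoechst during a one-step fixation (final 0.05% Triton X-100, 1% formaldehyde, 1 ug/ml Hoechst) carried out 5 days after dosing, then counted on 4× images. The cells, lung cancer lines in 1536-well plates, had been dosed by pin tool the day after seeding with one drug alone or a fixed anchor-drug dose plus five library-drug doses (not always all listed) in √10 steps. Relative viability is the nuclei count in treated wells divided by that in vehicle wells, and each value is the median of duplicate plates.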

Compound in the test “GSK-J4 + Olaparib”: CCOC(=O)CCNc1cc(N2CCc3ccccc3CC2)nc(-c2ccccn2)n1 [GSK-J4] + O=C(c1cc(Cc2n[nH]c(=O)c3ccccc23)ccc1F)N1CCN(C(=O)C2CC2)CC1 [Olaparib] (partner 8 µM)
Summed up: as §1

Compound in the test “AZ3146 + Trametinib”: CN1CCC(CC1)OC2=CC(=C(C=C2)NC3=NC=C4C(=N3)N(C(=O)N4C)C5CCCC5)OC [AZ3146] + CC(=O)Nc1cccc(-n2c(=O)n(C3CC3)c(=O)c3c(Nc4ccc(I)cc4F)n(C)c(=O)c(C)c32)c1 [Trametinib] (partner 0.02 µM)
In a few lines: as §1

Compound in the test “AZ3146 + Phenformin”: CN1CCC(CC1)OC2=CC(=C(C=C2)NC3=NC=C4C(=N3)N(C(=O)N4C)C5CCCC5)OC [AZ3146] + N=C(N)NC(=N)NCCc1ccccc1 [Phenformin] (partner 250 µM)
In a few lines: as §1

For UMC-11, the relative viability with GSK-J4 + Linsitinib (first compound 0.5 µM) worked out at 0.97; with GSK-J4 + Linsitinib (first compound 1.581 µM) it was 0.967; with GSK-J4 + Linsitinib (first compound 5 µM), 1.02; with GSK-J4 + Linsitinib (first compound 15.81 µM) it was 0.983; in the test with GSK-J4 + Linsitinib (first compound 50 µM) it was 0.572; with GSK-J4 + Olaparib (first compound 0.5 µM), 0.364. For the same cell line, the relative viability with GSK-J4 + Olaparib (first compound 1.581 µM) was 0.324; in the test with GSK-J4 + Olaparib (first compound 5 µM), 0.299; in the test with GSK-J4 + Olaparib (first compound 15.81 µM), 0.353; in the test with GSK-J4 + Olaparib (first compound 50 µM) it was 0.272; in the test with AZ3146 + Trametinib (first compound 0.08 µM), 0.575; with AZ3146 + Trametinib (first compound 0.253 µM), 0.725. Further, the relative viability with AZ3146 + Trametinib (first compound 0.8 µM) came to 0.629; in the test with AZ3146 + Trametinib (first compound 2.53 µM), 0.626; with AZ3146 + Trametinib (first compound 8 µM) it was 0.313; in the test with AZ3146 + Phenformin (first compound 0.08 µM) it was 0.299; with AZ3146 + Phenformin (first compound 0.253 µM) it was 0.311; with AZ3146 + Phenformin (first compound 0.8 µM) it was 0.345. Also, the relative viability in the test with AZ3146 + Phenformin (first compound 2.53 µM) is 0.317; with AZ3146 + Phenformin (first compound 8 µM), 0.263.
